{
  "source": "patent US8371292B2",
  "about": "“Use of ciclesonide for the treatment of respiratory diseases” (Nycomed GmbH, priority 2003, dated 2013)",
  "key": {"[1]": {"experiment": "clinical study in children with mild asthma: HPA function, cortisol in 12 h overnight urine", "type": "in vivo, human", "settings": "40, 80 and 160 μg once daily or placebo, 12 h overnight urine at end of each 2-week period", "procedure": "(§1) The present study was conducted to determine the effects of ciclesonide at doses intended for the use in children on lower leg growth rate and HPA function in children with mild asthma.\n(§2) METHODS: In a double blind, randomized, placebo-controlled, 4-period cross-over study, 24 children, 6 to 12 years of age, received ciclesonide 40, 80 and 160 μg or placebo via HFA-MDI once daily in the evening. Each 2-week treatment period was followed by a 2-week washout. Knemometry was performed at the beginning and the end of each treatment period. Cortisol levels in 12 h overnight urine were measured at the end of each treatment period."}, "[2]": {"experiment": "clinical study in children with mild asthma: lower leg growth rate by knemometry", "type": "in vivo, human", "settings": "for lower leg growth rate: 2-week treatment, children 6 to 12 years, placebo 0.412 mm/week", "procedure": "as §1, §2"}, "[3]": {"experiment": "clinical study in children with mild asthma: tolerability", "type": "in vivo, human", "settings": "40, 80 and 160 μg once daily, 2 weeks", "procedure": "as §1, §2"}, "[4]": {"settings": "cited from earlier work"}, "[5]": {"settings": "cited from earlier work", "remark": "listed apart in the source"}, "[6]": {"settings": "40, 80 and 160 μg once daily, 2 weeks"}},
  "data": [
    {"molecule": "CC(C)C(=O)OCC(=O)[C@@]12O[C@H](C3CCCCC3)O[C@@H]1C[C@H]1[C@@H]3CCC4=CC(=O)C=C[C@]4(C)[C@H]3[C@@H](O)C[C@@]12C", "note": "[ciclesonide, [11β,16α(R)]-16,17-[(Cyclohexylmethylen)bis(oxy)]-11-hydroxy-21-(2-methyl-1-oxopropoxy)pregna-1,4-dien-3,20-dion]", "values": [
      {"measurement": "urinary free cortisol adjusted for creatinine, difference between treatments", "setting": "[1]", "result": "no difference"},
      {"measurement": "lower leg growth rate", "setting": "[2]; 40 μg once daily in the evening via HFA-MDI", "result": 0.425, "unit": "mm/week"},
      {"measurement": "lower leg growth rate", "setting": "[2]; 80 μg once daily in the evening via HFA-MDI", "result": 0.397, "unit": "mm/week"},
      {"measurement": "lower leg growth rate", "setting": "[2]; 160 μg once daily in the evening via HFA-MDI", "result": 0.370, "unit": "mm/week"},
      {"measurement": "difference in lower-leg growth rates between ciclesonide treatments and placebo", "setting": "[2]; [6]", "result": "No statistically significant differences"},
      {"measurement": "dose-response effect on lower leg growth rate", "setting": "[2]; [6]", "result": "no statistically significant dose-response effect"},
      {"measurement": "tolerability", "setting": "[3]", "result": "well tolerated"},
      {"measurement": "systemic activity", "setting": "[4]; in vivo", "result": "low systemic activity"},
      {"measurement": "anti-inflammatory activity compared with budesonide", "setting": "[4]; relative to budesonide", "result": "higher"},
      {"measurement": "systemic activity compared with budesonide", "setting": "[4]; relative to budesonide", "result": "three times lower"},
      {"measurement": "concentration of the drug in the lungs", "setting": "[5]; in vivo", "result": "high"},
      {"measurement": "metabolism by liver oxidases", "setting": "[5]; in vivo", "result": "very high"},
      {"measurement": "plasma half-life", "setting": "[5]; in vivo", "result": "low plasma half-life"},
      {"measurement": "absorption after oral administration", "setting": "[5]; oral", "result": "only moderately absorbed"}
    ]}
  ]
}
